# Organism: Rattus norvegicus
# Test: Open TG-GATES - Regimen: Daily Repeat
# Assay type: toxicity, organism-based, Sprague-Dawley
# Set-up: regimen Daily Repeat, gender Male, age 6 weeks
# Settings: in vivo, po, 25 mg/kg, route gavage, dose level Low; for APTT / Bas / Eos / Fbg / Hb / Ht / Lym / MCH / MCHC / MCV / Mono / Neu / PT / Plat / RBC / Ret / WBC: tissue Blood; for KIDNEY_L / KIDNEY_R / KIDNEY_TOTAL: tissue Kidney; for LIVER: tissue Liver; for A/G / ALP / ALT / AST / BUN / CRE / Ca / Cl / DBIL / GLC / IP / K / LDH / Na / PL / RALB / TBIL / TC / TG / TP / gamma-GTP: tissue Plasma
smiles,measurement,setting,value
CCSCC[C@H](N)C(=O)O [ETHIONINE],TERMINAL_BW,"72 h, time 3 day",235.6 g
same,APTT,"72 h, time 3 day",22.5 s
same,Bas,"72 h, time 3 day",0%
same,Eos,"72 h, time 3 day",1%
same,Fbg,"72 h, time 3 day",213.8 mg/dL
same,Hb,"72 h, time 3 day",13.1 g/dL
same,Ht,"72 h, time 3 day",39.1%
same,Lym,"72 h, time 3 day",76.6%
same,MCH,"72 h, time 3 day",20.8 pg
same,MCHC,"72 h, time 3 day",33.6%
same,MCV,"72 h, time 3 day",61.9 fL
same,Mono,"72 h, time 3 day",2.8%
same,Neu,"72 h, time 3 day",18.8%
same,PT,"72 h, time 3 day",13.5 s
same,Plat,"72 h, time 3 day",126.1 x10_4/uL
same,RBC,"72 h, time 3 day",631.2 x10_4/ul
same,Ret,"72 h, time 3 day",6.4%
same,WBC,"72 h, time 3 day",124.8 x10_2/uL
same,KIDNEY_L,"72 h, time 3 day",1 g
same,KIDNEY_R,"72 h, time 3 day",1 g
same,KIDNEY_TOTAL,"72 h, time 3 day",2.1 g
same,LIVER,"72 h, time 3 day",11 g
same,A/G,"72 h, time 3 day",1.6
same,ALP,"72 h, time 3 day",1017.8 IU/L
same,ALT,"72 h, time 3 day",39.2 IU/L
same,AST,"72 h, time 3 day",68.2 IU/L
same,BUN,"72 h, time 3 day",14.4 mg/dL
same,CRE,"72 h, time 3 day",0.4 mg/dL
same,Ca,"72 h, time 3 day",10.6 mg/dL
same,Cl,"72 h, time 3 day",100.2 meq/L
same,DBIL,"72 h, time 3 day",0.08 mg/dL
same,GLC,"72 h, time 3 day",203.4 mg/dL
same,IP,"72 h, time 3 day",8.7 mg/dL
same,K,"72 h, time 3 day",4 meq/L
same,LDH,"72 h, time 3 day",174.4 IU/L
same,Na,"72 h, time 3 day",139.6 meq/L
same,PL,"72 h, time 3 day",129.6 mg/dL
same,RALB,"72 h, time 3 day",3.5 g/dL
same,TBIL,"72 h, time 3 day",0.1 mg/dL
same,TC,"72 h, time 3 day",56.6 mg/dL
same,TG,"72 h, time 3 day",97 mg/dL
same,TP,"72 h, time 3 day",5.7 g/dL
same,gamma-GTP,"72 h, time 3 day",1.2 IU/L
same,TERMINAL_BW,"[…], time 7 day",268.3 g
same,TERMINAL_BW,"[…], time 14 day",312.6 g
same,TERMINAL_BW,"[…], time 28 day",389.5 g
same,APTT,"[…], time 7 day",22.7 s
same,Bas,"[…], time 7 day",0%
same,Eos,"[…], time 7 day",1%
same,Fbg,"[…], time 7 day",206.4 mg/dL
same,Hb,"[…], time 7 day",13.7 g/dL
same,Ht,"[…], time 7 day",40.1%
same,Lym,"[…], time 7 day",81.8%
same,MCH,"[…], time 7 day",20.8 pg
same,MCHC,"[…], time 7 day",34.2%
same,MCV,"[…], time 7 day",60.8 fL
same,Mono,"[…], time 7 day",2.2%
same,Neu,"[…], time 7 day",14.8%
same,PT,"[…], time 7 day",13.3 s
same,Plat,"[…], time 7 day",121.3 x10_4/uL
same,RBC,"[…], time 7 day",660 x10_4/ul
same,Ret,"[…], time 7 day",5.6%
same,WBC,"[…], time 7 day",94 x10_2/uL
same,APTT,"[…], time 14 day",22.1 s
same,Bas,"[…], time 14 day",0%
same,Eos,"[…], time 14 day",0.8%
same,Fbg,"[…], time 14 day",192.2 mg/dL
same,Hb,"[…], time 14 day",14.3 g/dL
same,Ht,"[…], time 14 day",41.5%
same,Lym,"[…], time 14 day",79.6%
same,MCH,"[…], time 14 day",20.8 pg
same,MCHC,"[…], time 14 day",34.6%
same,MCV,"[…], time 14 day",60.2 fL
same,Mono,"[…], time 14 day",2.2%
same,Neu,"[…], time 14 day",16.4%
same,PT,"[…], time 14 day",13.8 s
same,Plat,"[…], time 14 day",125.2 x10_4/uL
same,RBC,"[…], time 14 day",689 x10_4/ul
same,Ret,"[…], time 14 day",3.8%
same,WBC,"[…], time 14 day",109.7 x10_2/uL
same,APTT,"[…], time 28 day",24.9 s
same,Bas,"[…], time 28 day",0%
same,Eos,"[…], time 28 day",1.2%
same,Fbg,"[…], time 28 day",184.4 mg/dL
same,Hb,"[…], time 28 day",15.3 g/dL
same,Ht,"[…], time 28 day",44%
same,Lym,"[…], time 28 day",80%
same,MCH,"[…], time 28 day",19.7 pg
same,MCHC,"[…], time 28 day",34.7%
same,MCV,"[…], time 28 day",56.6 fL
same,Mono,"[…], time 28 day",2%
same,Neu,"[…], time 28 day",15.8%
same,PT,"[…], time 28 day",14 s
same,Plat,"[…], time 28 day",114 x10_4/uL
same,RBC,"[…], time 28 day",779.4 x10_4/ul
same,Ret,"[…], time 28 day",1.9%
same,WBC,"[…], time 28 day",137.8 x10_2/uL
same,KIDNEY_L,"[…], time 7 day",1.1 g
same,KIDNEY_R,"[…], time 7 day",1.1 g
same,KIDNEY_TOTAL,"[…], time 7 day",2.2 g
same,KIDNEY_L,"[…], time 14 day",1.3 g
same,KIDNEY_R,"[…], time 14 day",1.2 g
same,KIDNEY_TOTAL,"[…], time 14 day",2.5 g
same,KIDNEY_L,"[…], time 28 day",1.4 g
same,KIDNEY_R,"[…], time 28 day",1.4 g
same,KIDNEY_TOTAL,"[…], time 28 day",2.8 g
same,LIVER,"[…], time 7 day",12.3 g
same,LIVER,"[…], time 14 day",13.8 g
same,LIVER,"[…], time 28 day",17.2 g
same,A/G,"[…], time 7 day",1.7
same,ALP,"[…], time 7 day",1036.6 IU/L
same,ALT,"[…], time 7 day",32.8 IU/L
same,AST,"[…], time 7 day",61.2 IU/L
same,BUN,"[…], time 7 day",15.2 mg/dL
same,CRE,"[…], time 7 day",0.4 mg/dL
same,Ca,"[…], time 7 day",10.5 mg/dL
same,Cl,"[…], time 7 day",103.2 meq/L
same,DBIL,"[…], time 7 day",0.086 mg/dL
same,GLC,"[…], time 7 day",195.8 mg/dL
same,IP,"[…], time 7 day",7.9 mg/dL
same,K,"[…], time 7 day",3.8 meq/L
same,LDH,"[…], time 7 day",205.8 IU/L
same,Na,"[…], time 7 day",141.6 meq/L
same,PL,"[…], time 7 day",143 mg/dL
same,RALB,"[…], time 7 day",3.7 g/dL
same,TBIL,"[…], time 7 day",0.1 mg/dL
same,TC,"[…], time 7 day",61 mg/dL
same,TG,"[…], time 7 day",141.4 mg/dL
same,TP,"[…], time 7 day",5.9 g/dL
same,gamma-GTP,"[…], time 7 day",1 IU/L
same,A/G,"[…], time 14 day",1.7
same,ALP,"[…], time 14 day",768.4 IU/L
same,ALT,"[…], time 14 day",28.6 IU/L
same,AST,"[…], time 14 day",56.2 IU/L
same,BUN,"[…], time 14 day",16.8 mg/dL
same,CRE,"[…], time 14 day",0.5 mg/dL
same,Ca,"[…], time 14 day",10.3 mg/dL
same,Cl,"[…], time 14 day",101.8 meq/L
same,DBIL,"[…], time 14 day",0.09 mg/dL
same,GLC,"[…], time 14 day",215.4 mg/dL
same,IP,"[…], time 14 day",7.2 mg/dL
same,K,"[…], time 14 day",3.7 meq/L
same,LDH,"[…], time 14 day",202.4 IU/L
same,Na,"[…], time 14 day",140.8 meq/L
same,PL,"[…], time 14 day",126.8 mg/dL
same,RALB,"[…], time 14 day",3.6 g/dL
same,TBIL,"[…], time 14 day",0.1 mg/dL
same,TC,"[…], time 14 day",49.6 mg/dL
same,TG,"[…], time 14 day",134 mg/dL
same,TP,"[…], time 14 day",5.9 g/dL
same,gamma-GTP,"[…], time 14 day",0.8 IU/L
same,A/G,"[…], time 28 day",1.6
same,ALP,"[…], time 28 day",588.2 IU/L
same,ALT,"[…], time 28 day",34.4 IU/L
same,AST,"[…], time 28 day",61.6 IU/L
same,BUN,"[…], time 28 day",18.6 mg/dL
same,CRE,"[…], time 28 day",0.5 mg/dL
same,Ca,"[…], time 28 day",10.4 mg/dL
same,Cl,"[…], time 28 day",103.4 meq/L
same,DBIL,"[…], time 28 day",0.1 mg/dL
same,GLC,"[…], time 28 day",221.8 mg/dL
same,IP,"[…], time 28 day",6.7 mg/dL
same,K,"[…], time 28 day",3.5 meq/L
same,LDH,"[…], time 28 day",209 IU/L
same,Na,"[…], time 28 day",142.4 meq/L
same,PL,"[…], time 28 day",124.2 mg/dL
same,RALB,"[…], time 28 day",3.8 g/dL
same,TBIL,"[…], time 28 day",0.2 mg/dL
same,TC,"[…], time 28 day",48.6 mg/dL
same,TG,"[…], time 28 day",144.8 mg/dL
same,TP,"[…], time 28 day",6.2 g/dL
same,gamma-GTP,"[…], time 28 day",1 IU/L

# — ChEMBL document CHEMBL3885861, “Open TG-GATES”
